Values of other authors as cited in US20070254015A1, “Sanitizing surfaces” (Searete LLC, a limited liability corporation of the State …, priority 2006, published 2007).
Read-outs that look alike come from different tables or passages of the source.

Legend:
[1] = system: Human Immunodeficiency Virus (HIV-1)
[2] = Table I, liquid sanitizing agents
[3] = Table II, liquid sanitizing agents for gloves

Compound | Known Minimum Concentration by Volume for Immediately Sterilizing Human Immunodeficiency Virus (HIV-1) [1, 2] [%] | Known Minimum Concentration by Volume for Immediately Sterilizing Human Immunodeficiency Virus (HIV-1) [1, 3] [%] | Known Minimum Concentration by Volume for Immediately Sterilizing Hepatitis B Virus (Hepatitis B Virus; [2]) [%] | Known Minimum Concentration by Volume for Immediately Sterilizing Hepatitis B Virus (Hepatitis B Virus; [3]) [%]
CCO [Ethyl Alcohol] | 50 | 50 | 80 | 80
OO [Hydrogen Peroxide] | 0.3 | 0.3 | – | –
CC(C)O [Isopropyl Alcohol] | 30 | 30 | 70 | 70
ethylphenyl-polyethylene glycol [NP-40] | 1 | 1 | – | –
